Laboratory results taken from publication PMC8742467, “Therapeutical interference with the epigenetic landscape of germ cell tumors: a comparative drug study and new mechanistical insights” (Clinical Epigenetics, 2022).

Tests used:
[1] = test system: EC (embryonal carcinoma) cell lines; assay: XTT cell viability assay, mean per entity EC; assay type: cell-based; conditions: Homo sapiens, after 48 h
Protocol: (§1) The […] (XTT) assays were performed as described previously. In summary, for GCT and fibroblast cell lines 5 × 10^3 cells (3 × 10^3 for UC, PCa and RCC cell lines) per 96-well were seeded and different drug concentrations (see Additional file 2: Fig. S2, Additional file 3: Fig. S3) or corresponding solvents were added to the cells the following day. For drug details see Additional file 12: Table S2 C. Each condition was analyzed in four technical replicates and EC50 values were calculated by GraphPad Prism v8.

[2] = test system: transcriptome of 2102EP cells; assay: RNA sequencing; assay type: cell-based, Human; conditions: 16 h
In short: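 Transcriptome of 2102EP cells sequenced; differential expression between two groups tested with p values FDR-corrected for multiple testing. Solvent-control values averaged across three datasets (GSE189472, GSE190792, GSE190022).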

[3] = test system: fibroblasts (MPAF, HVHF2); assay: XTT cell viability assay, fibroblasts; assay type: cell-based; conditions: Homo sapiens, Fibroblast; after 48 h, mean
Protocol: as §1

2102EP-R = assay: Flow cytometry apoptosis (Annexin V/PI), 2102EP-R; assay type: cell-based, Human; conditions: EC50, 16 h, compared to the parental cell line
Protocol: For Annexin V/PI staining, cells were washed with Annexin V Binding Buffer before being resuspended in 70 µl Annexin V Binding Buffer and 2.5 μl Annexin V FITC-conjugate (both Miltenyi Biotec, Bergisch Gladbach, Germany) and 15 µg PI (Sigma-Aldrich, Taufkirchen, Germany) and incubated in the dark at room temperature for 15 min. 500 µl of Annexin V Binding Buffer was added before measurement.

[4] = test system: histone modifications in 2102EP cells; assay: Mass spectrometry analysis of histone modifications (Mod Spec); assay type: cell-based, Human
In short: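 2102EP cells were treated for 16 h with EC50 concentrations of Quisinostat, JIB-04, Chaetocin, MZ-1, LP99, PRT4165 or GSK343, with DMSO as solvent control. After trypsin harvest, histones were extracted and analysed by mass spectrometry. Raw data were converted to z-scores.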

[5] = sorted data log2>±1.5, FDR p<0.05
[6] = 2102EP cells, Mod Spec raw data
[7] = 2102EP, EC50, 16 h, vs solvent control

In the case of `CCCc1cc(C)[nH]c(=O)c1CNC(=O)c1cc(-c2ccnc(N3CCN(C)CC3)c2)cc2c1cnn2C(C)C` [GSK343], the EC50 [1] is reported as 10.6 µM, the “CSF1R Log2 fold change vs. DMSO” value [2, 5] is reported as 3.81 and the “FOSB Log2 fold change vs. DMSO” value [2, 5] is reported as 3.96. The “GOLGA6D Log2 fold change vs. DMSO” value [2, 5] was -4.42, the “SCNN1B Log2 fold change vs. DMSO” value [2, 5] was -4.06 and the “TAC1 Log2 fold change vs. DMSO” value [2, 5] was 3.59. For the same compound, the “UMODL1 Log2 fold change vs. DMSO” value [2, 5] was -3.29, the “A1BG Log2 fold change vs. DMSO” value ([2]; unsorted data) was -0.54 and the “A1CF Log2 fold change vs. DMSO” value ([2]; unsorted data) was -2.01. The “A2M Log2 fold change vs. DMSO” value ([2]; unsorted data) was -0.59, the EC50 [3] was 9.79 µM and the “apoptosis induction in 2102EP-R” value (2102EP-R) was “did not induce apoptosis”. For the same compound, the “H1.4: K25AC, % of peptide pool” value [4, 6] was 0.006216%, the “H1.4: K25ME1, % of peptide pool” value [4, 6] was 2.263% and the “H1.4: K25ME2, % of peptide pool” value [4, 6] was 0.05379%. For the same compound, the “H1.4: K25ME3, % of peptide pool” value [4, 6] was 0.00622%, the “H1.4: K25UN, % of peptide pool” value [4, 6] was 97.6705% and the “H2A1: K13AC, % of peptide pool” value [4, 6] was 0.008349%. For the same compound, the “H2A1: K13UN, % of peptide pool” value [4, 6] was 99.9917%, the “H2A1: K15AC, % of peptide pool” value [4, 6] was 0.01155% and the “H2A1: K15UB, % of peptide pool” value [4, 6] was 0%. The “H2A1: K15UN, % of peptide pool” value [4, 6] was 99.9884%, the “H2A3: K13AC, % of peptide pool” value [4, 6] was 0.06695% and the “H2A3: K13UN, % of peptide pool” value [4, 6] was 99.933%. The “H2A3: K15AC, % of peptide pool” value [4, 6] was 0.06714%, the “H2A3: K15UB, % of peptide pool” value [4, 6] was 0% and the “H2A3: K15UN, % of peptide pool” value [4, 6] was 99.9329%. The “H2A: K5AC, % of peptide pool” value [4, 6] was 13.1006%, the “H2A: K5UN, % of peptide pool” value [4, 6] was 86.8994% and the “H2A: K9AC, % of peptide pool” value [4, 6] was 1.639%. The “H2A: K9UN, % of peptide pool” value [4, 6] was 98.3613%, the “H2A: K36AC, % of peptide pool” value [4, 6] was 0.03993% and the “H2A: K36UN, % of peptide pool” value [4, 6] was 99.9601%. The “H3: K9AC, % of peptide pool” value [4, 6] was 0.6993%, the “H3: K9ME1, % of peptide pool” value [4, 6] was 34.216% and the “H3: K9ME2, % of peptide pool” value [4, 6] was 32.7434%. For the same compound, the “H3: K9ME3, % of peptide pool” value [4, 6] was 3.375%, the “H3: K9UN, % of peptide pool” value [4, 6] was 28.9663% and the “H3: K14AC, % of peptide pool” value [4, 6] was 31.7092%. For the same compound, the “H3: K14UN, % of peptide pool” value [4, 6] was 68.2908%, the “H3: K18AC, % of peptide pool” value [4, 6] was 12.5517% and the “H3: K18ME1, % of peptide pool” value [4, 6] was 0.1858%. The “H3: K18UN, % of peptide pool” value [4, 6] was 87.2625%, the “H3: K23AC, % of peptide pool” value [4, 6] was 21.2228% and the “H3: K23ME1, % of peptide pool” value [4, 6] was 0.01722%. The “H3: K23UN, % of peptide pool” value [4, 6] was 78.76%, the “H3: K56AC, % of peptide pool” value [4, 6] was 0.2947% and the “H3: K56ME1, % of peptide pool” value [4, 6] was 0.4365%. For the same compound, the “H3: K56UN, % of peptide pool” value [4, 6] was 99.2689%, the “H3: K64AC, % of peptide pool” value [4, 6] was 0.01667% and the “H3: K64UN, % of peptide pool” value [4, 6] was 99.9833%. The “H3: K79AC, % of peptide pool” value [4, 6] was 0.7184%, the “H3: K79ME1, % of peptide pool” value [4, 6] was 16.7848% and the “H3: K79ME2, % of peptide pool” value [4, 6] was 6.651%. The “H3: K79ME3, % of peptide pool” value [4, 6] was 10.1333%, the “H3: K79UN, % of peptide pool” value [4, 6] was 65.7124% and the “H3: K122AC, % of peptide pool” value [4, 6] was 0.136%. The “H3: K122UN, % of peptide pool” value [4, 6] was 99.864%, the “H3: Q19ME1, % of peptide pool” value [4, 6] was 0.007707% and the “H3: Q19UN, % of peptide pool” value [4, 6] was 99.9923%. For the same compound, the “H3: Q55ME1, % of peptide pool” value [4, 6] was 0.1478%, the “H3: Q55UN, % of peptide pool” value [4, 6] was 99.8522% and the “H3: R42ME2, % of peptide pool” value [4, 6] was 3.196%. For the same compound, the “H3: R42UN, % of peptide pool” value [4, 6] was 96.8039%, the “H3: R49ME2, % of peptide pool” value [4, 6] was 7.636% and the “H3: R49UN, % of peptide pool” value [4, 6] was 92.3639%. The “H3R2UN: K4AC, % of peptide pool” value [4, 6] was 0.06759%, the “H3R2UN: K4ME1, % of peptide pool” value [4, 6] was 18.4584% and the “H3R2UN: K4ME2, % of peptide pool” value [4, 6] was 0.1346%. For the same compound, the “H3R2UN: K4ME3, % of peptide pool” value [4, 6] was 0.0559%, the “H3R2UN: K4UN, % of peptide pool” value [4, 6] was 81.2835% and the “H3R2UN: Q5ME1, % of peptide pool” value [4, 6] was 0.1125%. For the same compound, the “H3R2UN: Q5UN, % of peptide pool” value [4, 6] was 99.8875%, the “H3.1: K27AC, % of peptide pool” value [4, 6] was 2.595% and the “H3.1: K27ME1, % of peptide pool” value [4, 6] was 48.9633%. For the same compound, the “H3.1: K27ME2, % of peptide pool” value [4, 6] was 15.6374%, the “H3.1: K27ME3, % of peptide pool” value [4, 6] was 2.258% and the “H3.1: K27UN, % of peptide pool” value [4, 6] was 30.5467%. The “H3.1: K36AC, % of peptide pool” value [4, 6] was 0.2238%, the “H3.1: K36ME1, % of peptide pool” value [4, 6] was 13.8902% and the “H3.1: K36ME2, % of peptide pool” value [4, 6] was 50.2838%. For the same compound, the “H3.1: K36ME3, % of peptide pool” value [4, 6] was 20.6064%, the “H3.1: K36UN, % of peptide pool” value [4, 6] was 14.9959% and the “H3.3: K27AC, % of peptide pool” value [4, 6] was 7.138%. The “H3.3: K27M, % of peptide pool” value [4, 6] was 0%, the “H3.3: K27ME1, % of peptide pool” value [4, 6] was 44.2688% and the “H3.3: K27ME2, % of peptide pool” value [4, 6] was 12.6213%. The “H3.3: K27ME3, % of peptide pool” value [4, 6] was 4.2957%, the “H3.3: K27UN, % of peptide pool” value [4, 6] was 31.6757% and the “H3.3: K36AC, % of peptide pool” value [4, 6] was 3.015%. For the same compound, the “H3.3: K36ME1, % of peptide pool” value [4, 6] was 12.2658%, the “H3.3: K36ME2, % of peptide pool” value [4, 6] was 51.706% and the “H3.3: K36ME3, % of peptide pool” value [4, 6] was 19.9849%. The “H3.3: K36UN, % of peptide pool” value [4, 6] was 13.0282%, the “H4: K5AC, % of peptide pool” value [4, 6] was 7.684% and the “H4: K5UN, % of peptide pool” value [4, 6] was 92.3159%. For the same compound, the “H4: K8AC, % of peptide pool” value [4, 6] was 10.6823%, the “H4: K8UN, % of peptide pool” value [4, 6] was 89.3177% and the “H4: K12AC, % of peptide pool” value ([4]; 2102EP cells, Mod Spec raw data, histone H4 K12 acetylated) was 6.039 % of peptide pool. The “H4: K12UN, % of peptide pool” value ([4]; 2102EP cells, Mod Spec raw data, histone H4 K12 unmodified) was 93.9609 % of peptide pool, the “H4: K16AC, % of peptide pool” value ([4]; 2102EP cells, Mod Spec raw data, histone H4 K16 acetylated) was 41.5696 % of peptide pool and the “H4: K16UN, % of peptide pool” value ([4]; 2102EP cells, Mod Spec raw data, histone H4 K16 unmodified) was 58.4304 % of peptide pool. For the same compound, the “H4: K20AC, % of peptide pool” value ([4]; 2102EP cells, Mod Spec raw data, histone H4 K20 acetylated) was 21.2904 % of peptide pool, the “H4: K20ME2, % of peptide pool” value ([4]; 2102EP cells, Mod Spec raw data, histone H4 K20 dimethylated) was 42.0499 % of peptide pool and the “H4: K20ME1, % of peptide pool” value ([4]; 2102EP cells, Mod Spec raw data, histone H4 K20 monomethylated) was 3.554 % of peptide pool. The “H4: K20ME3, % of peptide pool” value ([4]; 2102EP cells, Mod Spec raw data, histone H4 K20 trimethylated) was 1.778 % of peptide pool, the “H4: K20UN, % of peptide pool” value ([4]; 2102EP cells, Mod Spec raw data, histone H4 K20 unmodified) was 31.3272 % of peptide pool and the “change of histone modifications of the expected mode of action (Mod Spec)” value [4, 7] was “decreased H3K27 methylation”. For the same compound, the “off-target changes of histone modifications (Mod Spec)” value [4, 7] was “increase of H4K20ac”.
